# Experimental data published in the NIST ThermoML archive (doi:10.1016/j.fluid.2018.06.013).
# ± gives the expanded uncertainty stated by the source.
# Test: activity coefficient (dimensionless); of the first substance listed, at infinite dilution; xn = mol fraction of the nth substance listed
# Conditions: 100 kPa, Liquid, Chromatography, x1 = 0
smiles,measurement,setting,value
CC#N [acetonitrile] + CCCC[N+]1(C)CCCC1.N#CN=C=[N-],activity coefficient,313.15 K,0.659 ± 0.069
same,activity coefficient,323.15 K,0.668 ± 0.07
same,activity coefficient,343.15 K,0.693 ± 0.072
same,activity coefficient,363.15 K,0.72 ± 0.08
same,activity coefficient,373.15 K,0.728 ± 0.076
CCCC(=O)OC [methyl butanoate] + CCCC[N+]1(C)CCCC1.N#CN=C=[N-],activity coefficient,313.15 K,2.92 ± 0.31
same,activity coefficient,323.15 K,3 ± 0.32
same,activity coefficient,343.15 K,3.16 ± 0.33
same,activity coefficient,363.15 K,3.25 ± 0.34
same,activity coefficient,373.15 K,3.34 ± 0.35
C#CCCCCCC [1-octyne] + CCCC[N+]1(C)CCCC1.N#CN=C=[N-],activity coefficient,313.15 K,8.87 ± 0.93
same,activity coefficient,323.15 K,9.03 ± 0.95
same,activity coefficient,343.15 K,9.41 ± 0.99
same,activity coefficient,363.15 K,9.79 ± 1
same,activity coefficient,373.15 K,9.87 ± 1
"Cc1cccc(C)c1 [1,3-dimethylbenzene] + CCCC[N+]1(C)CCCC1.N#CN=C=[N-]",activity coefficient,313.15 K,3.36 ± 0.35
same,activity coefficient,323.15 K,3.47 ± 0.36
same,activity coefficient,343.15 K,3.58 ± 0.38
same,activity coefficient,363.15 K,3.74 ± 0.39
same,activity coefficient,373.15 K,3.81 ± 0.4
